Data set [1] concerns Mus musculus. As to the kind of experiment: Tested for anticonvulsant activity against mice at 4 hr at a peroral dose of 10 mg/Kg by maximal electroshock seizure (MES) test. It counts as functional. In general terms: The maximal electroshock test induces tonic seizures with an electrical stimulus.
Data set [2] concerns Mus musculus. Briefly: Tested for anticonvulsant activity against mice at 4 hr at a peroral dose of 1 mg/Kg by maximal electroshock seizure (MES) test. The class given is functional.
Data set [3] deals with Mus musculus. Briefly: Tested for anticonvulsant activity against mice at 4 hr at a peroral dose of 75 mg/Kg by maximal electroshock seizure (MES) test. The class given is functional.
Data set [4] has as its system Mus musculus. As to the kind of experiment: Tested for anticonvulsant activity against mice at 4 hr at a peroral dose of 3 mg/Kg by maximal electroshock seizure (MES) test. The class given is functional.
Data set [5] deals with Mus musculus. Briefly: Tested for anticonvulsant activity against mice at 4 hr at a peroral dose of 35 mg/Kg by maximal electroshock seizure (MES) test. It counts as functional.
Data set [6] deals with Mus musculus. Briefly: Tested for effective dose required to produce anticonvulsant activity against mice at 4 hr (po). It counts as functional.
The test system of data set [7] is Mus musculus. As to the kind of experiment: Tested for anticonvulsant activity against mice at 4 hr at a peroral dose of 300 mg/Kg by maximal electroshock seizure (MES) test. It counts as functional.
In data set [8] the test system is Mus musculus. As to the kind of experiment: Tested for anticonvulsant activity against mice at 4 hr at a peroral dose of 200 mg/Kg by maximal electroshock seizure (MES) test. It counts as functional.
Data set [9] in a line: Therapeutic index relative to neurotoxicity ([…]) was determined in the rotarod test. For orientation: In the rotarod test animals must keep their balance on a rotating rod.
Data set [10] deals with Mus musculus. As to the kind of experiment: Tested for effective dose required to produce anticonvulsant activity against mice at 16 hr (po). The class given is functional.
Data set [11] concerns Mus musculus. As to the kind of experiment: Tested for anticonvulsant activity against mice at 4 hr at a peroral dose of 60 mg/Kg by maximal electroshock seizure (MES) test. The class given is functional.
The mark [12] stands for this setting: Mus musculus, po, 4 h, read-out: ED50.

Molecules are shown by their SMILES. A value given as a limit tells only on which side of the number the result lay.

Turning to `CC1(C)O[C@H]2[C@@H]3OS(=O)(=O)O[C@@H]3CO[C@@]2(COS(=O)(=O)NC2CCC2)O1`, the Block with Mus musculus [1] came out at 90%; with Mus musculus [2], 0%.
On to `CC1(C)O[C@H]2[C@@H]3OS(=O)(=O)O[C@@H]3CO[C@@]2(COS(=O)(=O)NC2CCCCCCC2)O1`, for which the Block was 0% with Mus musculus [1] and 30% in the data set with Mus musculus [3].
For `CCN(CC)S(=O)(=O)OC[C@@]12OC[C@H]3OS(=O)(=O)O[C@H]3[C@@H]1OC(C)(C)O2`, in that order: 10% and 100%.
Take `CCNS(=O)(=O)OC[C@@]12OC[C@H]3OS(=O)(=O)O[C@H]3[C@@H]1OC(C)(C)O2`: the Block is on record as 0% in the data set on Mus musculus [4] and 100% in the data set on Mus musculus [5]. The ED50 – broadly, the dose at which the effect has come halfway, by size or by number of responders – with Mus musculus [6] (setting [12]) was determined as 14.4 mg/kg.
Consider `CC1(C)O[C@H]2[C@@H]3OS(=O)(=O)O[C@@H]3CO[C@@]2(COS(=O)(=O)NCc2ccccc2)O1`, for which the Block with Mus musculus [1] worked out at 0%; in the data set with Mus musculus [3], 100%.
Regarding `C=CCNS(=O)(=O)OC[C@@]12OC[C@H]3OS(=O)(=O)O[C@H]3[C@@H]1OC(C)(C)O2`, the Block is 70% in the data set on Mus musculus [1] and 0% in the data set on Mus musculus [2].
As for `CCCCNS(=O)(=O)OC[C@@]12OC[C@H]3OS(=O)(=O)O[C@H]3[C@@H]1OC(C)(C)O2`, the Block in the data set on Mus musculus [1] is reported as 30%; in the data set on Mus musculus [5], 100%.
Consider `CNS(=O)(=O)OC[C@@]12OC[C@H]3OS(=O)(=O)O[C@H]3[C@@H]1OC(C)(C)O2`, for which, in the data set with Mus musculus [1], the Block is on record as 100%. Besides, the ED50 with Mus musculus [6] (setting [12]) was 7.4 mg/kg.
On to `CC1(C)O[C@H]2[C@@H]3OS(=O)(=O)O[C@@H]3CO[C@@]2(COS(=O)(=O)Nc2ccccc2)O1`, for which the Block with Mus musculus [3] and in the data set with Mus musculus [7] was 0% each time.
On to `CCCCCCCCNS(=O)(=O)OC[C@@]12OC[C@H]3OS(=O)(=O)O[C@H]3[C@@H]1OC(C)(C)O2`, for which the Block was determined as 0% with Mus musculus [1] and 100% in the data set on Mus musculus [3].
The matching figures for `CC1(C)O[C@H]2[C@@H]3OS(=O)(=O)O[C@@H]3CO[C@@]2(COS(=O)(=O)NCC(F)(F)F)O1`: 40% and 90%.
Take `CN(C)S(=O)(=O)OC[C@@]12OC[C@H]3OS(=O)(=O)O[C@H]3[C@@H]1OC(C)(C)O2`: the values for the Block in the data set with Mus musculus [1] and in the data set on Mus musculus [5] were 70% and 100%, respectively. In addition, the ED50 in the data set with Mus musculus [6] (setting [12]) came out at 6.9 mg/kg.
`CC1(C)O[C@H]2[C@@H]3OS(=O)(=O)O[C@@H]3CO[C@@]2(COS(=O)(=O)NC2CC2)O1`: the Block with Mus musculus [1] stood at 90%; in the data set with Mus musculus [2], 0%. Moreover, the ED50 with Mus musculus [6] (setting [12]) turned out to be 7.3 mg/kg.
In the case of `CNS(=O)(=O)OC[C@@]12OC[C@H]3OC(C)(C)O[C@H]3[C@@H]1OC(C)(C)O2`, the Block with Mus musculus [3] is 60%; in the data set with Mus musculus [8], 100%.
As for `CC1(C)O[C@H]2[C@@H]3OS(=O)(=O)O[C@@H]3CO[C@@]2(COS(N)(=O)=O)O1`, the Block in the data set on Mus musculus [1] turned out to be 80%. In data set [9], the selectivity ratio is greater than 150. Also, the ED50 with Mus musculus [10] is 41.5 mg/kg; in the data set with Mus musculus [6] (setting [12]) it was 6.3 mg/kg.
With `CN(C)S(=O)(=O)OC[C@@]12OC[C@H]3OC(C)(C)O[C@H]3[C@@H]1OC(C)(C)O2`, the Block in the data set on Mus musculus [3] is given as 0%; in the data set with Mus musculus [8], 80%.
For `CC1(C)O[C@H]2[C@@H]3OS(=O)O[C@@H]3CO[C@@]2(COS(N)(=O)=O)O1` (stereo in doubt; 3a), the Block in the data set on Mus musculus [1] is given as 70%. In addition, the ED50 with Mus musculus [6] (setting [12]) was determined as 6.3 mg/kg.
Regarding `CC1(C)O[C@H]2[C@@H]3OS(=O)O[C@@H]3CO[C@@]2(COS(N)(=O)=O)O1` (stereo in doubt; 3b), in the data set on Mus musculus [6], the 50% effective dose (ED50) amounted to 6.5 mg/kg.
On to `O=C1NC(=O)C(c2ccccc2)(c2ccccc2)N1` [PHENYTOIN], for which the ED50 in the data set on Mus musculus [6] (setting [12]) was 6.4 mg/kg.
Consider `CC1(C)O[C@@H]2[C@@H](CO[C@@]3(COS(N)(=O)=O)OC(C)(C)O[C@@H]23)O1` [TOPIRAMATE], for which the ED50 with Mus musculus [10] amounted to 720 mg/kg; in the data set with Mus musculus [6], 53.5 mg/kg. In the data set with Mus musculus [11], this compound showed a Block of 60%.

Source of the values: ChEMBL document CHEMBL1126999, “Anticonvulsant sugar sulfamates. Potent cyclic sulfate and cyclic sulfite analogues of topiramate” (Bioorg Med Chem Lett, 1993).
